How the values were obtained:
Aurora kinase B = Aurora kinase B (Homo sapiens, UniProt Q96GD4); test: Aurora Kinase Assay
Method: (§1) The kinase assay of Aurora A and B was measured using HTRF-kinEASE-STK discovery kit purchased from Cisbio.

Aurora kinase A = biological target: T1, Aurora kinase A (Homo sapiens, UniProt O14965); test: Aurora Kinase Assay
T1 sequence (O14965 whole entry): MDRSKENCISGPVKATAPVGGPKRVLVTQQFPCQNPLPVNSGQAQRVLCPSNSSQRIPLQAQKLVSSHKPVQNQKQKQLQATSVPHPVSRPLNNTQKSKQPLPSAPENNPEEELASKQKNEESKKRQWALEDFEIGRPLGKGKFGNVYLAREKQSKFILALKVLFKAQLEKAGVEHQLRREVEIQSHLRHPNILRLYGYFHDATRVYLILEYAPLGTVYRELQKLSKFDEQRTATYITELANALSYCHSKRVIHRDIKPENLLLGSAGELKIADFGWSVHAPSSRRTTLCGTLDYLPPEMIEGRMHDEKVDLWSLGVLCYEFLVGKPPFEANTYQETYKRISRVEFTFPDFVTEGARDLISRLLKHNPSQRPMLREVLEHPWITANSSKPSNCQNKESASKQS
Method: as §1

Aurora kinase B, sequence (Q96GD4 whole entry): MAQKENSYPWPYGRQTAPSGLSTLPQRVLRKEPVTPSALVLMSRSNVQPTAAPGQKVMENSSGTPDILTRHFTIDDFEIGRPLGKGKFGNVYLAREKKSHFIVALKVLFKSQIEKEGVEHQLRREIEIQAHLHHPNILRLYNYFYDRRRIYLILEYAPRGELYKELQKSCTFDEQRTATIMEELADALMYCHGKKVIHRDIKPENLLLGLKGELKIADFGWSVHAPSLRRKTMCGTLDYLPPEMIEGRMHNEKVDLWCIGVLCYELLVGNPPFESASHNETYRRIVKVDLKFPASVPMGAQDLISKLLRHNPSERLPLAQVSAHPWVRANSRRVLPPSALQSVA

IC50 (Aurora kinase B) [nM]	IC50 (Aurora kinase A) [nM]	Structure (SMILES)
136	111	CCOC(=O)c1csc2cc(Nc3ncnc4cc(OCCCN5CCN(C)CC5)ccc34)ccc12 [4-Aminoquinazoline derivative, 6f]
191	179	Cc1ccc(Nc2ncnc3cc(OCCCN4CCOCC4)ccc23)cc1Nc1ncc(-c2cccnc2)cn1 [4-Aminoquinazoline derivative, 6a]
489	323	Cc1ccc(Nc2ncnc3cc(OCCCN4CCCCC4)ccc23)cc1Nc1ncc(-c2cccnc2)cn1 [4-Aminoquinazoline derivative, 6b]
893	788	CCOC(=O)c1csc2cc(Nc3ncnc4cc(OCCCN(CC)CC)ccc34)ccc12 [4-Aminoquinazoline derivative, 6i]
145	77	Cc1ccc(Nc2ncnc3cc(OCCCN4CCCC4)ccc23)cc1Nc1ncc(-c2cccnc2)cn1 [4-Aminoquinazoline derivative, 6d]
	822	CCOC(=O)c1csc2cc(Nc3ncnc4cc(OCCCN5CCCCC5)ccc34)ccc12 [4-Aminoquinazoline derivative, 6g]
202	98	CCN(CC)CCCOc1ccc2c(Nc3ccc(C)c(Nc4ncc(-c5cccnc5)cn4)c3)ncnc2c1 [4-Aminoquinazoline derivative, 6c]
146	62	CCOC(=O)c1csc2cc(Nc3ncnc4cc(OCCCN5CCCC5)ccc34)ccc12 [4-Aminoquinazoline derivative, 6h]
